7 compounds from patent publication US12325697B2 (Nimbus Clio, Inc., priority 2021, dated 2025) can be followed below.

The structures appear in SMILES notation.

Recombinant human Cbl-b (aa 36-427), sequence (Q13191 36-427): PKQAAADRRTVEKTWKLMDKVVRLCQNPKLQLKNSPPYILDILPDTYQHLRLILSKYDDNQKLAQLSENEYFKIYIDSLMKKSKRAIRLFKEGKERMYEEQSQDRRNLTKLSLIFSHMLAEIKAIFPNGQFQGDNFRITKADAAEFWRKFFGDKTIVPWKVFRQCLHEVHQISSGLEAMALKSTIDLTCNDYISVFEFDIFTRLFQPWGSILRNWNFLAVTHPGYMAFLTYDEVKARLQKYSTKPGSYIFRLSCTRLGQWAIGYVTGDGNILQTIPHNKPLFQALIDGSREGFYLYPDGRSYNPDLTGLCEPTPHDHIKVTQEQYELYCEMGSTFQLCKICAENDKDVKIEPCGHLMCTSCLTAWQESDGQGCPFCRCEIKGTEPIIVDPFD

The test concerns the target Recombinant human Cbl-b (aa 36-427) (Homo sapiens (Human), UniProt Q13191). Put plainly: Cbl-b Biochemical Assay (TR-FRET). The note with it: read-out: TR-FRET hCbl-b IC50. An outline of the steps:
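Two-step TR-FRET: 6 nM biotinylated Cbl-b preincubated 30-60 min with compound, then 60 min at RT with 1-2.5 nM Src-Zap70 and 0.5 mM ATP in HEPES pH 7.0 buffer, 1% DMSO. Stopped with 5 mM EDTA plus 100 nM UBE2D2-Ub-FL-BODIPY and 1 nM streptavidin-Tb, 60 min; 520 nm signal; IC50 from 4-parameter fit.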
(In general: In TR-FRET formats the signal depends on donor and acceptor labels being close together.)
Take `CCNc1cc(-c2c(-c3nncn3C)cnn2C)cc(N2Cc3c(cccc3C(F)(F)F)C2=O)c1` [ABX-6, 2-[3-(Ethylamino)-5-[2-methyl-4-(4-methyl-1,2,4-triazol-3-yl)pyrazol-3-yl]phenyl]-4-(trifluoromethyl)-3H-isoindol-1-one]: the IC50 (as a rule, the concentration that gives 50% inhibition) was not above 0.2 µM.
Then `CCNc1cc(-c2ccccc2-c2nncn2C)cc(N2Cc3c(cc(CN4CCC[C@H](C)C4)cc3C(F)(F)F)C2=O)n1` [AF-1, (S)-2-(6-(Ethylamino)-4-(2-(4-methyl-4H-1,2,4-triazol-3-yl)phenyl)pyridine-2-yl)6-((3-methylpiperidin-1-yl)methyl)-4-(trifluoromethyl)isoindolin-1-one], with not above 0.2 µM.
Then `Cn1cnnc1-c1ccccc1-c1cc(N2Cc3c(cccc3C(F)(F)F)C2=O)nc(C2(CO)CC2)c1` [ACU-2, 2-(6-(1-(Hydroxymethyl)cyclopropyl)-4-(2-(4-methyl-4H-1,2,4-triazol-3-yl)phenyl)pyridin-2-yl)-4-(trifluoromethyl)isoindolin-1-one], with not above 0.2 µM.
In the case of `Cn1cnnc1-c1ccccc1-c1cccc(N2Cc3c(cc(CN[C@H]4CCC[C@H]4O)cc3C(F)(F)F)C2=O)c1` [AA-2, 6-((((1S,2R)-2-Hydroxycyclopentyl)amino)methyl)-2-(2′-(4-methyl-4H-1,2,4-triazol-3-yl)-[1,1′-biphenyl]-3-yl)-4-(trifluoromethyl)isoindolin-1-one] it was not above 0.2 µM; in that of `CCNc1cc(-c2c(-c3nncn3C)cnn2C)cc(N2Cc3c(cc(COC(C)C)cc3C(F)(F)F)C2=O)n1` [ACW-1, 2-(6-(Ethylamino)-4-(1-methyl-4-(4-methyl-4H-1,2,4-triazol-3-yl)-1H-pyrazol-5-yl)pyridin-2-yl)-6-(isopropoxymethyl)-4-(trifluoromethyl)isoindolin-1-one], not above 0.2 µM; in that of `CNC(=O)c1cc(-c2ccccc2-c2nncn2C)cc(N2Cc3c(cccc3C(F)(F)F)C2=O)c1` [Example O-3, N-Methyl-2′-(4-methyl-4H-1,2,4-triazol-3-yl)-5-(1-oxo-4-(trifluoromethyl)isoindolin-2-yl)-[1,1′-biphenyl]-3-carboxamide], 10 to 50 µM.
With `Cn1cnnc1-c1ccccc1-c1cc(N2Cc3c(cccc3C(F)(F)F)C2=O)nc2[nH]ccc12` [Example L-5, 2-(4-(2-(4-Methyl-4H-1,2,4-triazol-3-yl)phenyl)-1H-pyrrolo[2,3-b]pyridin-6-yl)-4-(trifluoromethyl)isoindolin-1-one], the IC50 lay within 10 to 50 µM.
